“And” between values parts separate entries of the source, which are not always exact repeats. Equal values may be shown once. Toxic doses and inconclusive results are not listed. The calls were made as follows: active = survival T/C of 150% or more; inactive = T/C below 125% in these data.
System: P388 leukemia ip, CD2F1 mice, survival T/C
Experiment: NCI In Vivo Anticancer Drug Screen. Data for tumor model P388 Leukemia (intraperitoneal) in CD2F1 (CDF1) mice
Settings: endpoint: median survival time, higher = longer survival
Outline: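 Mice carrying the transplanted tumor received test compound or vehicle. Survival was recorded in each group, and the value is the treated-group measurement divided by that of the vehicle-treated control group.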

[1] = dose: 60.0 mg/kg/injection, schedule: Q01DX005 (ip), vehicle: saline
[2] = dose: 120.0 mg/kg/injection, schedule: Q01DX005 (ip), vehicle: saline
[3] = dose: 240.0 mg/kg/injection, schedule: Q01DX005 (ip), vehicle: saline
[4] = dose: 100.0 mg/kg/injection, schedule: Q01DX009 (ip), vehicle: saline with Tween-80
[5] = dose: 200.0 mg/kg/injection, schedule: Q01DX009 (ip), vehicle: saline with Tween-80
[6] = dose: 400.0 mg/kg/injection, schedule: Q01DX009 (ip), vehicle: saline with Tween-80
[7] = dose: 50.0 mg/kg/injection, schedule: Q01DX005 (ip), vehicle: saline with Tween-80
[8] = dose: 100.0 mg/kg/injection, schedule: Q01DX005 (ip), vehicle: saline with Tween-80
[9] = dose: 200.0 mg/kg/injection, schedule: Q01DX005 (ip), vehicle: saline with Tween-80
[10] = dose: 50.0 mg/kg/injection, schedule: Q01DX009 (ip), vehicle: saline with Tween-80
[11] = dose: 60.0 mg/kg/injection, schedule: Q01DX005 (ip), vehicle: saline with Tween-80
[12] = dose: 120.0 mg/kg/injection, schedule: Q01DX005 (ip), vehicle: saline with Tween-80

Measured: T/C

CC(=O)OC1CC(C)(C2OC(=O)CC2CO)C2=CC(=O)OC3CC4C(C)(O)C=CC(=O)C4(C)C1C23C (centres undefined)
inactive: dose: 12.5 mg/kg/injection, schedule: Q01DX001 (ip), vehicle: Klucel (hydroxypropylcellulose) (HPC) 100 % of control | dose: 25.0 mg/kg/injection, schedule: Q01DX001 (ip), vehicle: Klucel (hydroxypropylcellulose) (HPC) 100 % of control | dose: 50.0 mg/kg/injection, schedule: Q01DX001 (ip), vehicle: Klucel (hydroxypropylcellulose) (HPC) 102 % of control | dose: 100.0 mg/kg/injection, schedule: Q01DX001 (ip), vehicle: Klucel (hydroxypropylcellulose) (HPC) 105 % of control

COC(=O)[C@@]12C(=O)N[C@@H](Cc3ccccc3)[C@@H]1[C@H](C)C(C)=C[C@@H]2CO
inactive: [1] 98 % of control | [2] 95 % of control | [3] 98 % of control

O=C1OC(c2ccccc2)CC1N1CCOCC1 (centres undefined)
inactive: [4] 100 % of control | dose: 100.0 mg/kg/injection, schedule: Q04DX003 (ip), vehicle: saline sonified 100 % of control | [5] 100 % of control | [6] 100 % of control | dose: 400.0 mg/kg/injection, schedule: Q04DX003 (ip), vehicle: saline sonified 89 % of control

CCN(CC)CCCC(C)Nc1cc(OC)c2nc(C)cc(OC)c2c1OC (centres undefined)
inactive: dose: 1.56 mg/kg/injection, schedule: Q01DX009 (ip), vehicle: saline 100 % of control | dose: 3.12 mg/kg/injection, schedule: Q01DX009 (ip), vehicle: saline 89 % of control | dose: 6.25 mg/kg/injection, schedule: Q01DX009 (ip), vehicle: saline 91 % of control and 97 % of control

ClC(Cl)C1OCCCO1
inactive: [1] 100 % of control | [2] 99 % of control | [3] 96 % of control

S=c1[nH]nc(-c2n[nH]c3ccccc23)o1
inactive: [7] 100 % of control | [8] 100 % of control | [9] 97 % of control

C/C=C(\C)C(=O)N/N=C\c1ccc(O)cc1O
inactive: [10] 104 % of control | [4] 96 % of control | [5] 91 % of control

CC(=O)N(O)c1ccc(S(N)(=O)=O)cc1
inactive: [10] 113 % of control | [4] 100 % of control | [5] 98 % of control

COc1cc(C2C(C(=O)OC/C=C/c3ccc4c(c3)OCO4)C(c3cc(OC)c(OC)c(OC)c3)C2C(=O)OC/C=C/c2ccc3c(c2)OCO3)cc(OC)c1OC (centres undefined)
inactive: [10] 87 % of control | [4] 93 % of control | [5] 95 % of control | [6] 102 % of control

CCCCCCCN(CCCCCCC)CC(O)c1c(Br)c2ccccc2c2ccccc12 (centres undefined)
inactive: dose: 10.0 mg/kg/injection, schedule: Q01DX009 (ip), vehicle: saline with Tween-80 115 % of control | dose: 20.0 mg/kg/injection, schedule: Q01DX009 (ip), vehicle: saline with Tween-80 115 % of control | dose: 40.0 mg/kg/injection, schedule: Q01DX009 (ip), vehicle: saline with Tween-80 98 % of control

Cc1ccc(S(=O)(=O)NC(=O)Nc2nccs2)cc1
inactive: dose: 12.5 mg/kg/injection, schedule: Q01DX009 (ip), vehicle: distilled water + Tween-80 99 % of control | dose: 25.0 mg/kg/injection, schedule: Q01DX009 (ip), vehicle: distilled water + Tween-80 92 % of control | dose: 50.0 mg/kg/injection, schedule: Q01DX009 (ip), vehicle: distilled water + Tween-80 97 % of control | dose: 100.0 mg/kg/injection, schedule: Q01DX009 (ip), vehicle: distilled water + Tween-80 106 % of control | dose: 200.0 mg/kg/injection, schedule: Q01DX009 (ip), vehicle: distilled water + Tween-80 99 % of control

COc1ccc(C(CC(C)=O)c2cc3c(cc2OC(C)=O)OCO3)cc1 (centres undefined)
inactive: [11] 97 % of control | [12] 103 % of control | dose: 240.0 mg/kg/injection, schedule: Q01DX005 (ip), vehicle: saline with Tween-80 99 % of control

CSc1nc(NC2OCC(O)C(O)C2O)c(C=O)c(=O)[nH]1 (centres undefined)
inactive: dose: 15.0 mg/kg/injection, schedule: Q01DX005 (ip), vehicle: saline with Tween-80 97 % of control | dose: 30.0 mg/kg/injection, schedule: Q01DX005 (ip), vehicle: saline with Tween-80 109 % of control | [11] 95 % of control

O=c1nc(Nc2cccc(Cl)c2)oc2cc(Cl)oc(=O)c12
inactive: dose: 12.5 mg/kg/injection, schedule: Q01DX009 (ip), vehicle: saline with Tween-80 109 % of control | dose: 25.0 mg/kg/injection, schedule: Q01DX009 (ip), vehicle: saline with Tween-80 109 % of control | [10] 113 % of control and 115 % of control | [4] 95 % of control

COP(=S)(OC)Oc1ccc(S(N)(=O)=O)cc1
inactive: dose: 100.0 mg/kg/injection, schedule: Q04DX002 (ip), vehicle: saline with Tween-80 102 % of control | dose: 200.0 mg/kg/injection, schedule: Q04DX002 (ip), vehicle: saline with Tween-80 98 % of control | dose: 400.0 mg/kg/injection, schedule: Q04DX002 (ip), vehicle: saline with Tween-80 98 % of control

O=S(=O)(/C=C\c1ccccc1)/C=C/c1ccc(F)cc1
inactive: [7] 111 % of control | [8] 97 % of control | [9] 94 % of control

CCc1nc(N)nc(N)c1-c1ccc(N2CCNCC2)c([N+](=O)[O-])c1
inactive: [11] 106 % of control | [12] 112 % of control

CC(C)c1cc(C=C2C(=O)c3ccccc3C2=O)cc(C(C)C)c1O
inactive: dose: 100.0 mg/kg/injection, schedule: Q04DX002 (ip), vehicle: saline 100 % of control | dose: 200.0 mg/kg/injection, schedule: Q04DX002 (ip), vehicle: saline 100 % of control | dose: 400.0 mg/kg/injection, schedule: Q04DX002 (ip), vehicle: saline 97 % of control

CN(C)CCC(=O)/C=C\c1ccccc1
inactive: dose: 25.0 mg/kg/injection, schedule: Q01DX009 (ip), vehicle: saline 107 % of control | dose: 50.0 mg/kg/injection, schedule: Q01DX009 (ip), vehicle: saline 108 % of control

CCCCCNc1ncnc2[nH]ncc12
inactive: [7] 96 % of control | [8] 102 % of control

Source: PubChem BioAssay AID330 (DTP/NCI, 2004)
